Data: ChEMBL document CHEMBL1201862, “PubChem BioAssay data set” (2004)
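Test compounds were applied to cells in 96-well plates for 48 hours at 5 doses. GI50 marks 50% less growth.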 Activity calls are given as the source filed them. Rule as the data show it: active = GI50 up to about 1.1 µM and inactive = higher.

Assays:
Experiment in all cases: NCI tumour cell line growth inhibition, 48 h
A549 = tested on: A549
SNB-19 = tested on: SNB-19
786-0 = tested on: 786-0
IGROV-1 = tested on: IGROV-1
M14 = tested on: M14
UACC-62 = tested on: UACC-62
HL-60 = tested on: HL-60
SF-539 = tested on: SF-539
DMS-273 = tested on: DMS-273
SF-268 = tested on: SF-268
RPMI-8226 = tested on: RPMI-8226
UO-31 = tested on: UO-31
ACHN = tested on: ACHN
RXF 393 = tested on: RXF 393
KM12 = tested on: KM12
NCI-H522 = tested on: NCI-H522
A498 = tested on: A498
MDA-N = tested on: MDA-N
MDA-MB-231 = tested on: MDA-MB-231
NCI/ADR-RES = tested on: NCI/ADR-RES

Measured: GI50

CC(=O)C1C(c2ccccc2)C2(C)OC(=O)C(C#N)C12C (stereo unspecified)
inactive: A549 > 100 µM | SNB-19 > 100 µM | 786-0 > 100 µM | IGROV-1 > 100 µM | M14 > 100 µM | UACC-62 > 100 µM | HL-60 > 100 µM | SF-539 > 100 µM | DMS-273 > 100 µM | SF-268 > 100 µM | RPMI-8226 > 100 µM | UO-31 > 100 µM | ACHN > 100 µM | RXF 393 > 100 µM | KM12 > 100 µM

CCC(=C(c1ccc(OCc2ccccc2)cc1)c1ccc(OCc2ccccc2)cc1)c1ccc(OC)cc1
inactive: A549 > 100 µM | SNB-19 > 100 µM | 786-0 > 100 µM | IGROV-1 > 100 µM | M14 > 100 µM | UACC-62 > 100 µM | HL-60 > 100 µM | SF-539 > 100 µM | DMS-273 > 100 µM | SF-268 > 100 µM | RPMI-8226 > 100 µM | UO-31 > 100 µM | ACHN > 100 µM | RXF 393 > 100 µM | NCI-H522 > 100 µM | KM12 > 100 µM

Cc1cc2c(=O)c3ccccc3[nH]c2c(C(=O)O)c1C
inactive: A549 > 100 µM | SNB-19 > 100 µM | 786-0 > 100 µM | IGROV-1 > 100 µM | UACC-62 > 100 µM | HL-60 70.8 µM | SF-539 > 100 µM | DMS-273 > 100 µM | RPMI-8226 > 100 µM | A498 > 100 µM | UO-31 43.9 µM | ACHN > 100 µM | RXF 393 67.1 µM | KM12 > 100 µM

CCc1ccc(Nc2cc(=O)n(C)c(SCc3ccccc3)n2)cc1
inactive: A549 29 µM | SNB-19 52.6 µM | 786-0 17.5 µM | IGROV-1 83.9 µM | M14 > 100 µM | UACC-62 > 100 µM | HL-60 39.8 µM | SF-539 30.2 µM | SF-268 97.7 µM | RPMI-8226 > 10 µM | MDA-N > 100 µM | MDA-MB-231 59.7 µM | A498 14.5 µM | NCI/ADR-RES > 100 µM | UO-31 > 100 µM | ACHN 75.3 µM | RXF 393 23.1 µM | NCI-H522 36.1 µM | KM12 66.4 µM

O=CC1CCC=CC1NC(=O)OCc1ccccc1 (stereo unspecified)
inactive: A549 > 100 µM | 786-0 33.8 µM | IGROV-1 > 100 µM | M14 33.9 µM | UACC-62 42.5 µM | HL-60 7.14 µM | SF-539 23 µM | DMS-273 27.9 µM | SF-268 85.5 µM | RPMI-8226 40.5 µM | UO-31 > 100 µM | ACHN > 100 µM | RXF 393 54.6 µM | NCI-H522 > 100 µM | KM12 47 µM

C/C(=N\NC(N)=O)C(CN(C)C)C(c1ccccc1)c1c(O)c2ccccc2oc1=O (stereo unspecified)
inactive: A549 > 100 µM | SNB-19 > 100 µM | 786-0 > 100 µM | IGROV-1 > 100 µM | M14 > 100 µM | UACC-62 > 100 µM | HL-60 38.4 µM | SF-539 > 100 µM | SF-268 > 100 µM | RPMI-8226 61.5 µM | MDA-N > 100 µM | MDA-MB-231 > 100 µM | A498 > 100 µM | NCI/ADR-RES > 100 µM | UO-31 > 100 µM | ACHN > 100 µM | RXF 393 88.7 µM | NCI-H522 > 100 µM | KM12 > 100 µM

CC(=O)Nc1ccc(COC(O)CN2CCCCC2)cc1[N+](=O)[O-] (stereo unspecified)
inactive: A549 > 100 µM | SNB-19 > 100 µM | 786-0 > 100 µM | IGROV-1 > 100 µM | M14 > 100 µM | UACC-62 > 100 µM | HL-60 > 100 µM | SF-539 > 100 µM | SF-268 > 100 µM | RPMI-8226 > 100 µM | MDA-N > 100 µM | MDA-MB-231 > 100 µM | A498 > 100 µM | NCI/ADR-RES > 100 µM | UO-31 > 100 µM | ACHN > 100 µM | RXF 393 > 100 µM | NCI-H522 > 100 µM | KM12 > 100 µM

C=CC(=O)Nc1ccccc1CC(c1c[nH]c2ccccc12)c1c[nH]c2ccccc12
inactive: A549 23.4 µM | SNB-19 17.9 µM | 786-0 18.8 µM | IGROV-1 18.2 µM | M14 16.3 µM | UACC-62 16.6 µM | SF-539 21.3 µM | DMS-273 17.7 µM | SF-268 24.1 µM | RPMI-8226 17.5 µM | UO-31 15.9 µM | RXF 393 > 10 µM | NCI-H522 22.8 µM | KM12 19.7 µM

CC(C)C(OC(=O)c1cc(NC(=S)c2ccccc2)ccc1Cl)C(C)C
inactive: A549 21 µM | SNB-19 38.4 µM | 786-0 16.7 µM | IGROV-1 33 µM | M14 31.7 µM | UACC-62 11.8 µM | HL-60 10.6 µM | SF-539 24.4 µM | SF-268 23 µM | RPMI-8226 13.3 µM | MDA-N 16.6 µM | MDA-MB-231 20.2 µM | A498 21.1 µM | NCI/ADR-RES 16.3 µM | UO-31 11.4 µM | ACHN 14.9 µM | RXF 393 13.1 µM | NCI-H522 8.51 µM | KM12 5.69 µM

C[Si](C)(c1ccccc1)[C@H]1CCCC=C1CCNC1c2ccccc2CCc2ccccc21
inactive: A549 61.8 µM | SNB-19 > 100 µM | 786-0 > 100 µM | IGROV-1 49.7 µM | M14 56.5 µM | UACC-62 61.4 µM | HL-60 1.79 µM | SF-539 > 100 µM | SF-268 > 100 µM | RPMI-8226 46.8 µM | MDA-N 70.5 µM | MDA-MB-231 89.7 µM | A498 69.2 µM | NCI/ADR-RES 76.2 µM | UO-31 49.5 µM | ACHN 67.5 µM | RXF 393 80 µM | NCI-H522 50.8 µM | KM12 77.3 µM

CCCCCCCCC(O)C#CC(N)=O (stereo unspecified)
inactive: A549 14.7 µM | SNB-19 11.8 µM | 786-0 12.7 µM | M14 12.3 µM | UACC-62 5.16 µM | HL-60 10.8 µM | SF-539 12.5 µM | DMS-273 7.28 µM | RPMI-8226 7.48 µM | A498 16.4 µM | UO-31 10 µM | ACHN 12.4 µM | RXF 393 13.7 µM

CCOc1ccncc1[N+](=O)[O-]
inactive: A549 > 100 µM | SNB-19 > 100 µM | 786-0 > 100 µM | IGROV-1 > 100 µM | M14 > 100 µM | UACC-62 > 100 µM | HL-60 > 100 µM | SF-539 > 100 µM | SF-268 > 100 µM | RPMI-8226 > 100 µM | MDA-N > 100 µM | MDA-MB-231 > 100 µM | A498 > 100 µM | NCI/ADR-RES > 100 µM | UO-31 > 100 µM | ACHN > 100 µM | RXF 393 > 100 µM | NCI-H522 > 100 µM | KM12 > 100 µM
